From article PMC10999085, “Synthesis, anticancer evaluation, molecular docking and ADME study of novel pyrido[4ʹ,3ʹ:3,4]pyrazolo[1,5-a]pyrimidines as potential tropomyosin receptor kinase A (TrKA) inhibitors” (BMC Chemistry, 2024)
Values after ≈ are worked out from the molar mass of the structure shown. “Also recorded” adds a separate entry of the source.

How the values were obtained:
[1] = tested on: HepG2 cell line; assay: MTT assay, HepG2 cell line; format: cell-based, human; settings: for Cytotoxicity at 5 µg/l: HepG2, 5 µg/l; for Cytotoxicity at 5 µg/l / Cytotoxicity at 10 µg/l / Cytotoxicity at 20 µg/l: MTT, 24 hr treatment, in % (unit assumed); for Cytotoxicity at 10 µg/l: HepG2, 10 µg/l; for Cytotoxicity at 20 µg/l: HepG2, 20 µg/l; for IC50: Homo sapiens, HepG2, MTT, read-out: IC50 (drug concentration that inhibited 50% of cell proliferation)
In short: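 Cells in RPMI-1640 with 10% FBS were seeded at 1.0x10^4 cells/well and cultured 48 h, then exposed to compound for 24 hr. Viability was measured by MTT reduction (4 hr), with formazan dissolved in DMSO and read at 570 nm, relative to untreated cells. Values are means of three independent triplicate experiments.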

[2] = tested on: HepG2 cells; assay: In-vitro cell cycle analysis (PI flow cytometry); format: cell-based, human; settings: for Cell cycle comment (phase of arrest): HepG2; for DNA content %G0-G1 / DNA content %G2/M / DNA content %Pre-G1 / DNA content %S: HepG2, compound at its IC50; for increase of the proportion of cells in the G2/M phase: HepG2, versus control
Method: HepG-2 cells are pre-cultured in 25 cm^2 cell culture flask. RPMI-1640 medium was used. Tested compounds 7b, 9c, 15b, 16a and 16c were used in the cell treatment at their IC50 by dissolving them in the required medium separately. The procedure was discussed in details in the ESI.
For cell cycle analysis, stained DNA from HepG2 cancer cells was treated with compounds 7b, 15b, 16a and 16c that induce cancer cell death by inhibiting TrKA. From the results in Table 5, it can be seen that the proportion of cells at phase in the pre-G1 of compounds 7b, 15b, 16a and 16c increased the proportion of cells at phase in the G2/M by about 4, 4, 2.5 and 3 folds, respectively.
HepG-2 cells were pre-cultured in 25 cm^2 cell culture flasks; RPMI-1640 medium was used. Tested compounds 7b, 15b, 16a and 16c were dissolved separately in the required medium and used in the cell treatment at their IC50. After overnight treatment the cells were collected and fixed gently with 70% (v/v) ethanol in PBS, incubated overnight at 4 °C, and resuspended in PBS containing 40 µg/ml propidium iodide (PI), 0.1 mg/ml RNase and 0.1% (v/v) Triton X-100 in the dark room at after 30 min at 37 °C, the cell cycle analysis was performed using a flow cytometer, equipped with an argon ion laser at a wavelength of 488 nm (Becton-Dickinson, San Josa, CA, USA) and the percentage of cells at G1, S and G2/M was also calculated.

[3] = target: T1, Tropomyosin receptor kinase A (TrKA) (Homo sapiens, UniProt P04629); assay: Tropomyosin receptor kinase A (TrKA) inhibitory assay (Kinase-Glo MAX kit); format: biochemical; settings: in vitro kinase assay, recombinant TrkA
T1 construct: purchased
Description: (§1) The TrkA assay Kit is designed to measure TrkA activity for screening and profiling applications using Kinase-Glo® MAX as a detection reagent. The TrkA Assay Kit comes in a convenient 96-well format, with enough purified recombinant TrkA enzyme, TrkA substrate, ATP and kinase assay buffer for 100 enzyme reactions. The method was discussed in details in the ESI.
as §1, with “reactions.” for “reactions. The method was discussed in details in the ESI.”
The assay protocol: all samples and controls should be tested in duplicate. Dissolve 5x Kinase Assay Buffer 1, ATP, and PTK Substrate Poly (Glu:Tyr 4:1) (10 mg/ml). 2). The master mixture (25 μl per well) was prepared by N wells x (6 μl 5x Kinase Assay Buffer 1 + 1 μl ATP (500 μM) + 1 μl PTK Substrate Poly (Glu:Tyr 4:1) (10mg/ml) + 17 μl water). Add 5 μl of Inhibitor solution of each well labeled as “Test Inhibitor”. For the “Positive Control" and “Blank”, add 5 μl of the same solution without inhibitor (Inhibitor buffer). Prepare 3 ml of 1x Kinase assay buffer 1 by mixing 600 μl of 5x Kinase assay buffer 1 with 2400 μl water 3 ml of 1x Kinase assay buffer is sufficient for 100 reactions. To the wells designated as "Blank", add 20 μl of 1x Kinase assay buffer 1and thaw TrkA enzyme on ice. Upon first thaw, briefly spin tube containing enzyme to recover full content of the tube. Calculate the amount of TrkA required for the assay and dilute enzyme to 5 ng/μl with 1x Kinase assay buffer. Store remaining undiluted enzyme in aliquots at -80°C. Then initiate reaction by adding 20 μl of diluted TrkA enzyme to the wells designated “Positive Control” and "Test Inhibitor Control". Incubate at 30°C for 45minutes and thaw Kinase-Glo Max reagent. After the 45 minute reaction, add 50 μl of Kinase-Glo Max reagent to each well. Cover plate with aluminum foil and incubate the plate at room temperature for 15 minutes. Immediately read sample in a luminometer or microtiter-plate capable of reading chemiluminescence. “Blank” value is subtracted from all readings.

T1 sequence (P04629 33-796): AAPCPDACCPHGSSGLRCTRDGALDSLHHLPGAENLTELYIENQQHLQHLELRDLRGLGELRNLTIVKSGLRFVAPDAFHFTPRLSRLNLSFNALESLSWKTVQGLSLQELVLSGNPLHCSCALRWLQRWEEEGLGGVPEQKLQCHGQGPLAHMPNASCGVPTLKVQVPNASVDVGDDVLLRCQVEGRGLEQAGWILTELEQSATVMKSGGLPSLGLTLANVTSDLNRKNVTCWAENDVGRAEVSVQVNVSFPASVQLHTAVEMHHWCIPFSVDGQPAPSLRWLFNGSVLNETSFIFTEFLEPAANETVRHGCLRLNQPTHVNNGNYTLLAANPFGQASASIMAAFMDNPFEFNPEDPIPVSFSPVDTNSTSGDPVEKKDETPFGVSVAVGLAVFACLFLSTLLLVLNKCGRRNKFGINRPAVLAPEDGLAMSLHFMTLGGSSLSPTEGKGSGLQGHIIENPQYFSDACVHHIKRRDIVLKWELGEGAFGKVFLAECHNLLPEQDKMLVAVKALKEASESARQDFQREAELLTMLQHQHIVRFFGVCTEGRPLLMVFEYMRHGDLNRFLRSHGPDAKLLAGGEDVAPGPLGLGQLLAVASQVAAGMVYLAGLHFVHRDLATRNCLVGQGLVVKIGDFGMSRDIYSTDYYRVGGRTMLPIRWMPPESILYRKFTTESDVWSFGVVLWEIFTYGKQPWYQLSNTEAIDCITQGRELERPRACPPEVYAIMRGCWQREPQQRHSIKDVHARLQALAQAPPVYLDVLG

Row | IC50 [1] [ng/mL] | IC50 [3] [nM] | SMILES | Cytotoxicity at 5 µg/l [1] | Cytotoxicity at 10 µg/l [1] | Cytotoxicity at 20 µg/l [1] | Cell cycle comment (phase of arrest) [2] | DNA content %G0-G1 [2] [%] | DNA content %G2/M [2] [%] | DNA content %Pre-G1 [2] [%] | DNA content %S [2] [%] | increase of the proportion of cells in the G2/M phase [2]
1 | 3.43 (≈ 0.00935 µM) | 128 | COc1ccc(NN=C2C(=O)NC(=O)c3c2nn2c(O)cc(C)nc32)cc1 [Compound 16c, 4-Hydroxy-7-(2-(4-methoxyphenyl)hydrazono)-2-methylpyrido[4ʹ,3ʹ:3,4]pyrazolo[1,5-a]pyrimidine-8,10(7H,9H)-dione] | 59.17 | 70.57 | 84.32 | arrest in cell cycle at the G2/M phase; also recorded: cell growth arrest@G2/M | 41.61 | 26.45 | 12.07 | 31.94 | ~3 folds
2 | 4.25 (≈ 0.0122 µM) | 184 | COc1ccc(C=C2C(=O)NC(=O)c3c2nn2c(C)cc(C)nc32)cc1 [Compound 7b] | 55.11 | 69.08 | 85.16 | arrested in the cell cycle at G2/M phase; also recorded: arrest in cell cycle at the G2/M phase; also recorded: cell growth arrest@G2/M | 38.42 | 34.70 | 24.89 | 26.88 | about 4 folds
3 | 3.56 (≈ 0.0106 µM) | 214 | Cc1cc(O)n2nc3c(c2n1)C(=O)NC(=O)C3=NNc1ccccc1 [Compound 16a, 4-Hydroxy-2-methyl-7-(2-phenylhydrazono)pyrido[4ʹ,3ʹ:3,4]pyrazolo[1,5-a]pyrimid-ine-8,10(7H,9H)-dione] | 54.39 | 66.36 | 72.80 | arrest in cell cycle at the G2/M phase; also recorded: cell growth arrest@G2/M | 42.11 | 21.74 | 15.33 | 36.15 | ~2.5 folds
